{
  "source": "paper PMC10803265",
  "about": "(Nature Medicine, 2023)",
  "key": {"patients": {"tested_on": "patients", "settings": "cited from earlier work"}, "[1]": {"tested_on": "non-small cell lung cancer", "settings": "cited from earlier work"}, "cynomolgus monkeys": {"tested_on": "cynomolgus monkeys", "parameters": "method as in GDC-6036 Investigator's Brochure", "settings": "ref GDC-6036 Investigator's Brochure, cited from earlier work"}, "BCRP": {"tested_on": "BCRP", "parameters": "method as in GDC-6036 Investigator's Brochure", "settings": "in vitro; ref GDC-6036 Investigator's Brochure; cited from earlier work"}, "[2]": {"tested_on": "pERK, pS6, DUSP6, SPRY4 in KRAS G12C-positive cancer cell lines", "parameters": "method as in GDC-6036 Investigator's Brochure", "settings": "ref GDC-6036 Investigator's Brochure; cited from earlier work"}, "[3]": {"settings": "cited from earlier work"}, "CYP3A4": {"tested_on": "CYP3A4", "parameters": "method as in GDC-6036 Investigator's Brochure", "settings": "human hepatocyte culture; ref GDC-6036 Investigator's Brochure; cited from earlier work"}, "KRAS G12C-positive CRC": {"tested_on": "KRAS G12C-positive CRC", "settings": "single-agent divarasib at 400 mg, patients with CRC; cited from earlier work"}, "mice": {"tested_on": "mice", "parameters": "method as in GDC-6036 Investigator's Brochure", "settings": "gavage, attributed to chemical irritation by the higher concentration drug formulation, ref GDC-6036 Investigator's Brochure; cited from earlier work"}, "[4]": {"tested_on": "xenograft models of KRAS G12C-positive lung tumors", "parameters": "method as in GDC-6036 Investigator's Brochure", "settings": "nonclinical xenograft models of KRAS G12C-positive lung tumors; ref GDC-6036 Investigator's Brochure; cited from earlier work"}, "KRAS G12C [5]": {"tested_on": "KRAS G12C", "parameters": "method as in earlier work", "settings": "in vitro; cited from earlier work"}, "[6]": {"tested_on": "patients with KRAS G12C-positive CRC", "quoted_text": "Preliminary antitumor activity was determined by the investigator according to RECIST v1.1. […] PFS was defined as the time from first treatment to the first occurrence of disease progression or death from any cause during the study (whichever occurred first)."}, "P-gp": {"tested_on": "P-gp", "parameters": "method as in GDC-6036 Investigator's Brochure", "settings": "in vitro; ref GDC-6036 Investigator's Brochure; cited from earlier work"}, "KRAS G12C [7]": {"tested_on": "KRAS G12C", "settings": "single-agent divarasib; patients with detectable KRAS G12C ctDNA at C1D1; cited from earlier work"}, "[8]": {"experiment": "Divarasib plasma pharmacokinetics, non-compartmental analysis", "type": "in vivo, human", "settings": "divarasib 400 mg QD in combination with cetuximab (250 mg/m^2 QW), n=21; C1D8 or C2D1 AUC0-24 / C1D1 AUC0-24; mean ± s.d.", "protocol": "Pharmacokinetic parameters were estimated using non-compartmental analysis of concentration–time data. Plasma samples were evaluated for divarasib using a validated liquid chromatography tandem mass spectrometry assay. […] A stable labeled internal standard was used. Pharmacokinetic non-compartmental analysis was performed with nominal time using Phoenix WinNonlin (Certara USA, version 8.3). Graphical visualization was done using R (version 4.2.0; R Foundation for Statistical Computing). Pharmacokinetic samples at steady state were collected before dose, and at 0.5, 1, 2, 3, 4 and 8 h after dose on cycle 1 day 8 (C1D8) or on cycle 2 day 1 (C2D1)."}, "[9]": {"settings": "AMG 510 all events, n=129, MRTX849 related only, n=17, ref Janne et al. 2019, Hong et al. 2020"}, "[10]": {"settings": "Phase I trial, one patient, ref Hong et al. 2020"}, "[11]": {"settings": "divarasib 400 mg QD single agent, multiple doses (C1D8 or C2D1), N 76, mean ± s.d."}, "[12]": {"settings": "in combination with cetuximab, 29 patients"}, "[13]": {"settings": "single-agent divarasib at 400 mg"}},
  "note": "“Also recorded” adds a separate entry of the source. Read-outs that look alike come from different tables or passages of the source.",
  "data": [
    {"molecule": "C=CC(=O)N1CCN(c2nc(=O)n(-c3c(C)ccnc3C(C)C)c3nc(-c4c(O)cccc4F)c(F)cc23)[C@@H](C)C1", "note": "[sotorasib]", "values": [
      {"measurement": "all grade adverse events: diarrhea", "setting": "patients; [9]", "result": 29.5, "unit": "%"},
      {"measurement": "all grade adverse events: nausea", "setting": "patients; [9]", "result": 20.9, "unit": "%"},
      {"measurement": "all grade adverse events: vomiting", "setting": "patients; [9]", "result": 17.8, "unit": "%"},
      {"measurement": "Grade 3 treatment-related increased AST, patients", "setting": "patients; Phase I trial, 3 out of 129, ref Hong et al. 2020", "result": 2.3, "unit": "%"},
      {"measurement": "Grade 3 treatment-related increased ALT, patients", "setting": "patients; Phase I trial, 6 out of 129, ref Hong et al. 2020", "result": 4.7, "unit": "%"},
      {"measurement": "any grade increased ALT, patients", "setting": "patients; Phase I trial, 15 out of 129, ref Hong et al. 2020", "result": 11.6, "unit": "%"},
      {"measurement": "any grade increased AST, patients", "setting": "patients; Phase I trial, 17 out of 129, ref Hong et al. 2020", "result": 13.2, "unit": "%"},
      {"measurement": "Grade 4 treatment-related elevation of ALT, patients", "setting": "patients; [10]", "result": 0.8, "unit": "%"},
      {"measurement": "discontinued treatment because of Grade 3 treatment-related increase in ALT and AST levels, patients", "setting": "patients; [10]", "result": 0.8, "unit": "%"},
      {"measurement": "ORR", "setting": "[1]; phase 2 trial", "result": 37, "unit": "%"},
      {"measurement": "ORR", "setting": "[1]; phase 3 trial", "result": 28, "unit": "%"}
    ]},
    {"molecule": "C=CC(=O)N1CCN(c2nc(OC[C@@H]3CCCN3C)nc3c(F)c(-c4nc(N)cc(C)c4C(F)(F)F)c(Cl)cc23)[C@@H](C)C1", "note": "[divarasib]", "values": [
      {"measurement": "clinical signs", "setting": "cynomolgus monkeys; 4-week toxicology studies in cynomolgus monkeys", "result": "gastrointestinal intolerance with retching and vomiting"},
      {"measurement": "hepatic transaminases", "setting": "cynomolgus monkeys; cynomolgus monkeys", "result": "minimal to mild transaminase elevation"},
      {"measurement": "BCRP transporter inhibition", "setting": "BCRP", "result": "inhibit"},
      {"measurement": "downstream MAPK pathway components (pERK, pS6) and KRAS target genes (DUSP6, SPRY4)", "setting": "[2]", "result": "inhibited"},
      {"measurement": "AUC0-24", "setting": "[3]; [11]", "result": "9130 ± 3160", "unit": "ng·h/mL"},
      {"measurement": "Cmax", "setting": "[3]; [11]", "result": "657 ± 185", "unit": "ng/mL"},
      {"measurement": "tmax", "setting": "[3]; divarasib 400 mg QD single agent, multiple doses (C1D8 or C2D1), N 76, median (range)", "result": "2.0 (0.5-8.0) hr"},
      {"measurement": "RAUC0-24", "setting": "[3]; divarasib 400 mg QD single agent, n=63, mean ± s.d.", "result": "1.4 ± 0.4", "unit": "fold"},
      {"measurement": "mean half-life", "setting": "[3]; single dose of divarasib 400 mg as a single agent", "result": "17.6 ± 2.7", "unit": "h"},
      {"measurement": "CYP3A4 mRNA induction", "setting": "CYP3A4", "result": "induce messenger RNA (mRNA)"},
      {"measurement": "CYP3A4 protein levels induction", "setting": "CYP3A4", "result": "not protein levels"},
      {"measurement": "confirmed ORR", "setting": "KRAS G12C-positive CRC", "result": 35.9, "unit": "%"},
      {"measurement": "median PFS", "setting": "KRAS G12C-positive CRC", "result": 6.9, "unit": "months"},
      {"measurement": "microscopic findings", "setting": "mice", "result": "laryngeal necrosis"},
      {"measurement": "single-agent activity on tumor growth", "setting": "[4]", "result": "inhibits tumor growth"},
      {"measurement": "potency compared to sotorasib and adagrasib", "setting": "KRAS G12C [5]", "result": "5 to 20", "unit": "times"},
      {"measurement": "diarrhea leading to divarasib dose reduction, patients", "setting": "[6]; all grade 3", "result": 10.3, "unit": "%"},
      {"measurement": "vomiting leading to divarasib dose reduction, patients", "setting": "[6]; grade 1", "result": 3.4, "unit": "%"},
      {"measurement": "TRAEs leading to divarasib dose interruptions, patients", "setting": "[6]; [12]", "result": 24.1, "unit": "%"},
      {"measurement": "TRAEs leading to divarasib dose modifications (interruption, reduction or withdrawal), patients", "setting": "[6]; [12]", "result": 34.5, "unit": "%"},
      {"measurement": "TRAEs leading to divarasib treatment withdrawals", "setting": "[6]; [12]", "result": "no divarasib treatment withdrawals; also recorded: No patients withdrew"},
      {"measurement": "confirmed ORR", "setting": "[1]; [13]", "result": 56.4, "unit": "%"},
      {"measurement": "median PFS", "setting": "[1]; [13]", "result": 13.1, "unit": "months"},
      {"measurement": "P-gp transporter inhibition", "setting": "P-gp", "result": "inhibit"},
      {"measurement": "patients with KRAS G12C VAF decline to below 0.5% at C3D1", "setting": "KRAS G12C [7]", "result": 45.7, "unit": "%"},
      {"measurement": "RAUC0-24", "setting": "[8]", "result": "1.2 ± 0.4", "unit": "fold"}
    ]}
  ]
}
